From US20090270363A1, “2-Aryl- and 2-Heteroarylthiazolyl Compounds, Methods for Their Preparation and Use Thereof” (Wyeth, priority 2008, published 2009)

What was measured:
[1] = system: HCT116 cells (Securin+/+, securin parental, HCT116 FB); test: Growth inhibition (sulforhodamine B, 5 days) of securin parental cells; assay type: cell-based; conditions: Homo sapiens, HCT-116, 120 h, SRB
Method: (§1) IC50 analysis was performed for selected fused bicyclic 2-aryl or 2-heteroarylthiazolyl compounds that were tested on HCT116 cells and Securin “knock out” cell lines.
(§2) Cell Culture—HCT116 and securin “knock out” cells. HCT116 and securin “knock out” cells (D8 and F3) were grown in RPMI+5% fetal bovine serum and gentamycin. They were maintained in a humidified 37° C. incubator with 5% CO2. Since the securin “knock out” cells have active chromosomal instability, cells were used at a low passage number of 2-13 passages. At or before passage 13 a new vial of cells was thawed and used for the screen. Cell seeding—HCT116 cells and securin “knock out” cells were trypsinized and suspended in RPMI+5% FBS at a density of 27,000 cells/mL. HCT116 and securin “knock out” cells were seeded separately in wells of a 96-well plate (Falcon Cat # 35-3872) at a cell density of 4000 cells per well. Cells were seeded in 150 μL of RPMI media containing 5% FBS and gentamycin. Cell seeding was performed under aseptic conditions. Cells were allowed to attach and grow overnight in a humidified 37° C. incubator.
(§3) Compound Dilution and Dispensation. A series of stock solutions, 10 mg/mL of fused bicyclic 2-aryl- or 2-heteroarylthiazolyl compounds to be tested, were brought to room temperature. The compounds were diluted 1:50 in RPMI+5% FBS (Highest concentration 200 μg/mL). The compounds were then serially diluted 1:3 across a deep-well titration plate resulting in final concentrations in the plate of 200, 66.7, 22.2, 7.4, 2.4, 0.8, 0.27, 0.091, 0.03, 0.01, and 0.0034 μg/mL with one well left without a compound. 50 μL of this dilution series was added to the 150 μL of cells to result in a final concentration of compound in with the cells of 50, 16.6, 5.5, 1.8, 0.6, 0.2, 0.068, 0.023, 0.0076, 0.0025, and 0.00084 μg/mL. The dilution and addition of compounds to the plates is performed using a Multimek 96 Robot (Beckman Coulter).
(§4) Incubation and analysis. After dosing, the cells in the 96 well plates were returned to the humidified 37° C. incubator. The compounds remained on the cells for 5 days. After 5 days, the cells were fixed to the plates with the addition of 50 μL of 50% (vol/vol) Trichloro Acetic Acid ([…]). The cells were fixed at 4° C. for 1 hour. The plates were washed 5 times in distilled water and allowed to dry. The cells were stained with 0.4% sulforhodamine B (Sigma) in 1% acetic acid. The cells were stained for 15 minutes at room temperature. The plates were then washed 3 times in 1% acetic acid. The plates were dried and the dye was solubilized in 10 mM Tris at pH 8.0. The plates were read on the Absorbence 560 setting on a Victor^2 V Model 1420 Multilabel HTS counter (Perkin Elmer).
(§5) Analysis of Results—IC50 data. Absorbence data was read off of the Victor and was converted to a percentage of the control (untreated) values. IC50 values were graphed and the point at which a 50% inhibition of the control level was determined. […] If the model was not able to determine an IC50, the IC50 was assigned to the lowest concentration that gives a 50% or greater decrease in absorbence compared to control levels. If the calculated IC50 value for a cell line exceeds the top concentration for the assay (typically 50 μg/mL), the assay was scored as >50.
(§6) Selectivity Ratio. The Selectivity Ratio is the ratio of IC50s between the parent cell line and the knock out cell line and is always a positive number and is typically an integer.

[2] = system: securin "knock out" cells F3 (Securin-/-); test: Growth inhibition (sulforhodamine B, 5 days) of securin knock out cells F3; assay type: cell-based; conditions: for IC50: 120 h, securin knock out F3 cells, 5 days, SRB; for Selectivity Ratio F3: IC50 HCT116 / IC50 securin KO F3
Method: as §1, §2, §3, §4, §5, §6

[3] = system: securin "knock out" cells D8 (Securin-/-); test: Growth inhibition (sulforhodamine B, 5 days) of securin knock out cells D8; assay type: cell-based; conditions: for IC50: 120 h, securin knock out D8 cells, 5 days, SRB; for Selectivity Ratio D8: IC50 HCT116 / IC50 securin KO D8
Method: as §1, §2, §3, §4, §5, §6

[4] = system: Xenografts of a Human Breast Carcinoma Cell Line (MDA-MB-361); test: Tumor xenograft study versus Herceptin (Table 2); assay type: in vivo
Method: (§7) Selected fused bicyclic 2-aryl- or 2-heteroarylthiazolyl compounds of formula I were tested for their activity in a securin parental cell line (HCT116 FB) and a securin knockout (KO) cell line. […] The in-vivo activity of selected fused bicyclic 2-aryl- or 2-heteroarylthiazolyl compounds of formula I was studied in cells growing as xenografts in athymic (nude) mice. The effect of Examples 164, 166 and 167 was studied in xenografts of a human breast carcinoma cell line (MDA-MB-361).
(§8) In-vivo Activity in Tumor Xenografts. […] The fused bicyclic 2-arylthiazolyl compounds were formulated using 0.5% Methocel™ (methylcellulose) and 0.4% Tween 80™ (polysorbate-80 and oleic acid) and administered daily orally (PO), by gavage or by syringe. Tumor mass [(length×width^2)/2] was determined every 7 days. Inhibition of tumor growth was calculated relative to conventional (vehicle treated) controls.

[5] = system: Xenografts of a Human Breast Carcinoma Cell Line (MDA-MB-361); test: Tumor xenograft study versus Vincristine (Table 3); assay type: in vivo; conditions: days 2 through 21
Method: as §7, §8
The effectiveness of Examples 164, 166 and 167 versus Vincristine at controlling tumor growth was studied and the results are summarized in Table 3 and FIG. 2.

[6] = 25 mg/kg/dose IP, days 1, 3, 5 ... 19
[7] = 25 mg/kg/dose PO, days 1 through 20

## CN(C)c1ccc(-c2nc3c(s2)C(O)CCC3)c(Br)c1 (centres unmarked) [Example 140, 2-[2-bromo-4-(dimethylamino)phenyl]-4,5,6,7-tetrahydro-1,3-benzothiazol-7-ol]
[1]
  IC50: 37.2 µM
[2]
  IC50: 1.8 µM
  Selectivity Ratio F3: 21
[3]
  IC50: 0.57 µM
  Selectivity Ratio D8: 66

## O=[N+]([O-])c1cc(N2CCCC2)ccc1-c1nc2c(s1)C(O)CCC2 (centres unmarked) [Example 151, 2-(2-nitro-4-pyrrolidin-1-ylphenyl)-4,5,6,7-tetrahydro-1,3-benzothiazol-7-ol]
[1]
  IC50: 38 µM
[2]
  IC50: 0.053 µM
  Selectivity Ratio F3: 724
[3]
  IC50: 0.046 µM
  Selectivity Ratio D8: 832

## C[S+]([O-])c1cc(N2CCCC2)ccc1-c1nc2c(s1)C(O)CCC2 (centres unmarked) [Example 155, 2-[2-(Methylsulfinyl)-4-pyrrolidin-1-ylphenyl]-4,5,6,7-tetrahydro-1,3-benzothiazol-7-ol]
[1]
  IC50: 38.8 µM
[2]
  IC50: 0.17 µM
  Selectivity Ratio F3: 224
[3]
  IC50: 0.099 µM
  Selectivity Ratio D8: 390

## OC1CCCc2nc(-c3ccc(N4CCCC4)cc3)sc21 (centres unmarked) [Example 158, 2-(4-pyrrolidin-1-yl-phenyl)-4,5,6,7-tetrahydro-benzothiazol-7-ol]
[1]
  IC50: 154 µM
[2]
  IC50: 2.9 µM
  Selectivity Ratio F3: 54
[3]
  IC50: 1.7 µM
  Selectivity Ratio D8: 91

## COC(=O)c1cc(N2CCCC2)ccc1-c1nc2c(s1)C(O)CCC2 (centres unmarked) [Example 161, 2-(7-Hydroxy-4,5,6,7-tetrahydro-benzothiazol-2-yl)-5-pyrrolidin-1-yl-benzoic acid methyl ester]
[1]
  IC50: 66.3 µM
[2]
  IC50: 0.52 µM
  Selectivity Ratio F3: 128
[3]
  IC50: 0.4 µM
  Selectivity Ratio D8: 165

## OCc1cc(N2CCCC2)ccc1-c1nc2c(s1)C(O)CCC2 (centres unmarked) [Example 162, 2-(2-Hydroxymethyl-4-pyrrolidin-1-yl-phenyl)-4,5,6,7-tetrahydro-benzothiazol-7-ol]
[1]
  IC50: 15.3 µM
[2]
  IC50: 0.046 µM
  Selectivity Ratio F3: 333
[3]
  IC50: 0.05 µM
  Selectivity Ratio D8: 304

## OC1CCCc2nc(-c3ccc(N4CCNCC4)cc3)sc21 (centres unmarked) [Example 163, 2-(4-piperazin-1-yl-phenyl)-4,5,6,7-tetrahydrobenzothiazol-7-ol]
[1]
  IC50: 31.6 µM
[2]
  IC50: 22.9 µM
  Selectivity Ratio F3: 1
[3]
  IC50: 25.9 µM
  Selectivity Ratio D8: 1

## CN(C)c1ccc(-c2nc3c(s2)[C@H](O)CCC3)cc1 [Example 164, (7R)-2-[4-(dimethylamino)phenyl]-4,5,6,7-tetrahydro-1,3-benzothiazol-7-ol]
[4]; [6]
  % T/C Day 7: 64%
  % T/C Day 14: 101%
  % T/C Day 21: 74%
  Relative Tumor Growth Day 7: 1.23
  Relative Tumor Growth Day 14: 3.23
  Relative Tumor Growth Day 21: 8.04
  S/T = # of Survivors/# of Treated on Day +21: 4/5
[4]; [7]
  % T/C Day 7: 81%
  % T/C Day 14: 115%
  % T/C Day 21: 117%
  Relative Tumor Growth Day 7: 1.57
  Relative Tumor Growth Day 14: 3.68
  Relative Tumor Growth Day 21: 12.27
  S/T = # of Survivors/# of Treated on Day +21: 5/5
[1]
  IC50: 101 µM
[5]; 25 mg/kg/dose PO
  % T/C Day 8: 41%
  % T/C Day 15: 37%
  % T/C Day 22: 45%
  Relative Tumor Growth Day 8: 2.17
  Relative Tumor Growth Day 15: 4.64
  Relative Tumor Growth Day 22: 10.02
  Relative Tumor Growth Day 29: 15.52
[5]; 50 mg/kg/dose PO
  % T/C Day 8: 45%
  Relative Tumor Growth Day 8: 2.37
  Relative Tumor Growth Day 15: Toxic
[5]; 50 mg/kg/dose PO, * = sacrificed earlier due to tumor size
  S/T = # of Survivors/# of Treated on Day +36: 0/5
[2]
  IC50: 1.3 µM
  Selectivity Ratio F3: 78
[3]
  selectivity ratios (IC50 HCT116 FB/IC50 securin KO): high selectivity ratios
  IC50: 0.81 µM
  Selectivity Ratio D8: 124

## COC(=O)c1cc(N(C)C)ccc1-c1nc2c(s1)[C@H](O)CCC2 [Example 165, methyl 5-(dimethylamino)-2-[(7R)-7-hydroxy-4,5,6,7-tetrahydro-1,3-benzothiazol-2-yl]benzoate]
[1]
  IC50: 100 µM
[2]
  IC50: 0.74 µM
  Selectivity Ratio F3: 136
[3]
  IC50: 0.29 µM
  Selectivity Ratio D8: 348
